Measured values reported in PMC6025875, “Genetic manipulation of Leishmania donovani threonyl tRNA synthetase facilitates its exploration as a potential therapeutic target” (PLoS Neglected Tropical Diseases, 2018).

B1: threonyl tRNA synthetase (LdThrRS) (Leishmania donovani) (protein)
chain: MSGKKKAAEATVDLATLAEPGFWRQRVEIFEQLWQQQQNRYESMKAPIKVSLPDGKVMDAESWVTCPLDIAKRLSNSLPDKVIVARVNEALWDLTRPFEADCQLELLDWDDKDAREVFWHSSSHVLGYALERIFDTKLSVGPALEEGGFFYEGLTNRPVSESDYKAIESAMQELVKQKMPYQRLEVSKEDALRLFGYTEFKSKILASKVPDGGSCTVYRCGMLIDPCRGPHLPDTGRVKAFAVTKNSSSYFEGKAENEVLQRVYGISFPKNPMLTEWKTIQEEAAKRDHRVIGRQQNLFNFHEVSPGSAFWLPHGTRIYNTLVEFLRKKYRRCGFQEVISPNMYSSKLWMVSGHWEKYADNMFCTKCEKEDFGLKPMNCPGHCIMFASQPHSYKELPIRYADFGVLHRNELSGALTGLTRVRRFQQDDAHIFCRMDQITDEMEGQMQFLSDVYGVLGFKFYFYHSTRPANKLGSDALWDQSESYLRTALNRFCGIPEELPDPLHPDQRFHYDGKPDSVKKMKALMKKAERCEDPNAWKGPTNGGDGWIENAGDGAFYGPKIDIVVEDALRRRHQCATIQLDFNLPSRFGLKYTLPAAEKDETTVSPTEKQKHADPALTASSPAVEDCVSKPKPGTYEAAVRDLGIDLELDANQARPVMIHRAILGSLERSIAILCEHFGGDWPFWLSPRQVMVVPVSASNYEYSQQVRDTMHDAGFHADVDNGAATLDKKIRNAEKARYNFILVVGQKEQDATAVNIRARGEKRLGNKSLVEAVQWLKELADTHNREY

Experiments:
[1] = target: T1, threonyl tRNA synthetase (LdThrRS) (Leishmania donovani, UniProt A0A3S7X901); test: ITC at […]°C (N = […]); also inhibits aminoacylation of the purified enzyme, IC50 […]; format: binding
T1 construct: gene LdCL_350019100; full-length recombinant LdThrRS with N-terminal His6 tag (rLdThrRS, pET30a, E. coli BL21 (DE3))

purified protein = substrate: C[C@@H](O)[C@H](N)C(=O)O; test: purified protein

Molecule	Kd [1]	Km (purified protein)
C[C@@H]1C[C@H](C)C[C@H](C)[C@@H](O)CC(=O)O[C@H]([C@@H]2CCC[C@H]2C(=O)O)C/C=C/C=C(/C#N)[C@H](O)[C@@H](C)C1 [borrelidin]	40 nM	–
B1	–	250 ± 30 µM
